Reference: US12691092B2, “Method for reducing cutaneous skin scarring by pre-emptive priming and compounds and compositions for its implementation” (SOS SCIENCE OF SKIN LTD, priority 2020, dated 2026)

Legend:
human skin models = conditions: ex vivo human skin models; cited from earlier work
elastin = experiment: Gene expression analysis of elastin; assay type: in vivo, human; conditions: weeks 4 and 8; significant in groups-1 to 3 at week 8 (p<0.05)
Experimental: (§1) A double-blind randomized placebo-controlled trial was conducted using a temporal punch-biopsy model. The punch biopsy and topical application methodology used in the study is illustrated in FIG. 1, namely showing pre-injury pre-emptive priming (7-days), pre-injury pre-emptive priming (3-days), day of injury (immediate application on day 0), post-injury (delayed 2 weeks post injury) including biopsy time points and time of topical applications. Each group applied both placebo and topical formulations twice daily for the duration of the study until week 8, with only the starting time point differing between groups Participants were split into 4 groups (n=10 in each group) in order to compare different modes (timings) of commencement of the topical application: • Group-1: Pre-emptive Priming (7-days): pre-injury • Group-2: Pre-emptive Priming (3-days): pre-injury • Group-3: Immediate (0-day): day-of-injury • Group-4: Delayed (14-days): post-injury Clinical quantitative devices were used to objectively monitor cutaneous healing at weekly intervals and punch biopsies were performed on day 0 (uninjured skin) and at weeks 4 and 8 for protein and gene expression analyses. […] Excisional skin biopsies in upper arms were evaluated weekly with multiple quantitative devices over an 8-week period. […]

langerin = experiment: Langerin immunohistochemical marker in scar biopsies; assay type: in vivo, human; conditions: week 4, group-1 only (7-day pre-injury priming), p=0.02
Experimental: as §1

CD31 = experiment: QRT-PCR for CD31; assay type: in vivo, human; conditions: week 4, all groups
Experimental: as §1

[1] = test system: Nuclear factor erythroid 2-related factor 2 (NRF2); experiment: NRF2 immunohistochemical marker (anti-oxidant effect); assay type: in vivo, human; conditions: scar samples, weeks 4 and 8
Experimental: as §1

SMILES: O=C(OC1Cc2c(O)cc(O)cc2OC1c1cc(O)c(O)c(O)c1)c1cc(O)c(O)c(O)c1 (single isomer, unassigned; (-)) [EGCG, (-)-epigallocatechin-3-gallate]
- Effect on scar growth (human skin models): inhibited growth and induced scar shrinkage
- Mast cell (MC) numbers (human skin models): significantly reduced mast cell (MC) numbers
- Elastin gene expression, EGCG-treated samples compared to placebo (elastin): upregulation
- langerin reduction in EGCG-treated samples compared to placebo (langerin): 13%
- QRT-PCR CD31, EGCG-treated samples compared to placebo (CD31): significant down regulation
- NRF2 amounts, EGCG samples compared to placebo [1]: slightly higher amounts of NRF2 compared to placebo samples, although not significantly
